Source: paper PMC12292862 (Biomedicines, 2025)
≈ marks a conversion by molar mass, not a printed value. Entries after “also recorded” stand apart in the source; their conditions may differ. Marks after values point to notes of the source that are not given here.

How the values were obtained:
COX-2 = test: In vitro colorimetric COX (ovine) inhibitor-screening assay, COX-2; format: biochemical; details: ovine COX-2, tested at 50, 100 and 150 µg/mL
Experimental: The test compounds’ ability to suppress COX-1 and COX-2 was evaluated using a colorimetric COX (ovine) inhibitor-screening method (Cayman Chemical, Item Number 760111). In brief, 150 μL of assay buffer, 10 μL of heme, 10 μL of enzyme (COX-1 or COX-2), and 10 μL of compound (1 mg/mL) make up the reaction mixture. In a final volume of […], the test compounds were evaluated at doses of 50, 100, and 150 μg/mL. The cyclooxygenase peroxidase component is used in the experiment. By monitoring the appearance of oxidized N, N, […] (TMPD) at 590 nm, the peroxidase activity is measured […]. […] The following formula was used to determine the % COX inhibition: The COX inhibition activity percentage is equal to (1 − T/C ×100), where T is the inhibitor well’s absorbance and C is the starting activity’s absorbance at 100% without the inhibitor well.

[1] = Cell viability and cytotoxicity (MTT assay); format: cell-based, human; details: human, WI-38 human lung fibroblast cells, WI-38 cells; for IC50: 31.25 to 1000 µg/mL
Experimental: (§1) The cell lines were obtained from VACSERA—Holding Company for Biological Products and Vaccines, Cairo, Egypt. A 96-well tissue culture plate was seeded with 1 × 10^5 cells/mL (Wl-38 cells) from the human lung fibroblast cell line, adding 100 µL per well, and incubated at 37 °C with 5% CO2 for 24 h to allow the formation of a confluent monolayer. Following incubation, the growth medium was aspirated, and the cell monolayers were washed twice with wash medium to remove residual serum. Serial two-fold dilutions of the test compound were prepared in RPMI-1640 supplemented with 2% fetal bovine serum. Each dilution (100 µL) was added to the designated wells, while three wells served as negative controls and received only maintenance medium. The plate was incubated at 37 °C for an appropriate duration, during which cellular morphology was monitored for signs of cytotoxicity, including monolayer disruption, cell rounding, shrinkage, or granulation. MTT solution (5 mg/mL in PBS) was prepared, and 20 µL was added to each well. The plate was briefly agitated at 150 rpm for 5 min and then incubated for 4 h at 37 °C to allow viable cells to metabolize MTT into insoluble formazan crystals. After incubation, the supernatant was carefully removed, and 200 µL of DMSO was added to each well to solubilize the formazan. The plates were agitated again at 150 rpm for 5 min, and the absorbance was measured at 560 nm with background subtraction at 620 nm. The resulting optical density values were directly proportional to the number of viable cells.
(§2) The information was presented as the mean ± SD of the volume difference (mL) between the control and carrageenan-treated paws. One-way analysis of variance (ANOVA) was used to analyze the experimental groups’ data, and a Tukey post hoc test was then performed. p < 0.05 was considered significant. The IC50 values were calculated using Microsoft Excel by plotting a dose–response curve between compound concentration and cell viability percentage. A linear regression or logarithmic trendline was fitted to the data points, depending on the curve behavior.

[2] = test system: WI-38 human lung fibroblast cells; test: Cell viability and cytotoxicity (MTT assay); format: cell-based; details: WI-38 cells; morphology
Experimental: as §1, §2

CRP = test: Serum CRP (ELISA) in carrageenan-injected rats; format: in vivo, rat; details: compounds 200 mg/kg i.p., indomethacin 10 mg/kg, mean ± SD
Experimental: (§3) The selective pro-inflammatory cytokines were measured quantitatively using rat-specific Enzyme-Linked Immunosorbent Assay (ELISA) kits from Thermo Scientific™ (Waltham, MA, USA) with CAT. No. ERCRP for CRP; from Elabscience with Cat. No. E-EL-R2856 for TNF-α and with Cat. No. E-EL-R0011 for IL-1α; from CUSABIO, Houston, TX, USA, with Cat. No. CSB-E04640r for IL-6; and from My BioSource Co, USA, with Cat. No. MBS825017 for IL-1β, with Cat. No. MBS753621 for rat cyclooxygenase 1, and with Cat. No. MBS266603 for rat cyclooxygenase 2. Meanwhile, an ovine COX inhibitor-screening in vitro assay (item number 760111) was obtained from Cayman Chemical (Ann Arbor, MI, USA). We purchased malondialdehyde (MDA), glutathione (GSH), and superoxide dismutase (SOD) detection kits from Nanjing Jiancheng Bio-Technology Co. Ltd. (Nanjing, China).
(§4) At the end of the experiments, the rats were subjected to anesthesia with chloroform and then sacrificed. Blood was obtained via heart puncture for biochemical analysis. Following the animals’ sacrifice, the paws were taken out, decalcified, and stored in a 10% formalin solution. To prepare the tissue samples, they were sliced into thicknesses of 5 µm. Hematoxylin and eosin dyes were used to create the histology slides, which were then examined using a photomicroscope (Meiji Techno®, Iruma, Japan) for pathological alterations. The presence of inflammation was documented. Protease/phosphatase inhibitor cocktail in cold phosphate-buffered saline (1:4) (pH 7, 0.01 mol/L) (Cat. No. PPC1010, Sigma-Aldrich) was used to homogenize each rat’s paw piece in a glass homogenizer. After filtering and centrifuging the resultant homogenate for five minutes at 5000× g, oxidative stress biomarkers like GSH, SOD, and MDA were measured. The trials were repeated three times.

IL-1β = test: Serum IL-1β (ELISA) in carrageenan-injected rats; format: in vivo, rat; details: compounds 200 mg/kg i.p., indomethacin 10 mg/kg, mean ± SD
Experimental: as §3, §4

IL-6 = test: Serum IL-6 (ELISA) in carrageenan-injected rats; format: in vivo, rat; details: compounds 200 mg/kg i.p., indomethacin 10 mg/kg, mean ± SD
Experimental: as §3, §4

TNF-α = test: Serum TNF-α (ELISA) in carrageenan-injected rats; format: in vivo, rat; details: compounds 200 mg/kg i.p., indomethacin 10 mg/kg, mean ± SD
Experimental: as §3, §4

malondialdehyde (MDA) = test: Paw tissue oxidative stress biomarker MDA; format: in vivo, rat; details: carrageenan rats, 200 mg/kg i.p.
Experimental: as §3, §4

glutathione (GSH) = test: Paw tissue oxidative stress biomarker GSH; format: in vivo, rat; details: carrageenan rats, 200 mg/kg i.p., result in words
Experimental: as §3, §4

rat cyclooxygenase 2 = test: COX-2 level in carrageenan-injected paw (ELISA); format: in vivo; details: compounds 200 mg/kg i.p., indomethacin 10 mg/kg, mean ± SD
Experimental: as §3, with “Meanwhile, an ovine COX inhibitor-screening in vitro assay (item number 760111) was obtained from Cayman Chemical (Ann Arbor, MI, USA).” left out
as §4

[3] = test system: rat paw tissue dermal collagen; test: Sirius Red staining of dermal collagen in paw tissue; format: in vivo; details: carrageenan-injected paw; compounds 200 mg/kg i.p., indomethacin 10 mg/kg

SMILES: NC1=NC2(CCCCCC2)n2nc(C(=O)Nc3ccc(S(N)(=O)=O)cc3)nc2N1 [Compound 1, 5′-Amino-N-(4-sulfamoylphenyl). -1′H-spiro[cycloheptane-1,7′-[1,2,4]triazolo[1,5-a][1,3,5] -triazine] -2′-carboxamide]
- COX-2 inhibition % (mean activity) (COX-2): 98%
- viability at 31.25 µg/mL [1]: 99.9%
- IC50 [1]: 363 µg/mL (≈ 867 µM)
- concentration above which cells shrink and lose fibroblast-like structure [2]: above 125 µg/mL
- CRP (CRP): 4.19 ± 0.28 ^b ng/mL
- IL-1β (IL-1β): 64.98 ± 0.30 ^b pg/mL
- IL-6 (IL-6): 14.44 ± 0.26 ^b pg/mL
- TNF-α (TNF-α): 8.27 ± 0.19 ^b pg/mL
- MDA level (malondialdehyde (MDA)): notable improvements
- GSH concentration (glutathione (GSH)): notable improvements
- COX-2 level (rat cyclooxygenase 2): 3.44 ± 0.30 ng/mL
- dermal collagen content and distribution (Sirius Red) [3]: normal collagen quantity and distribution; also recorded: normal in both quantity and organization

SMILES: CC1(C)CC(=O)CC2(C1)N=C(N)Nc1nc(C(=O)Nc3ccc(S(N)(=O)=O)cc3)nn12 (stereo not shown) [Compound 2]
- COX-2 inhibition % (mean activity) (COX-2): 98%
- viability at 31.25 µg/mL [1]: 99.9%
- IC50 [1]: 328 µg/mL (≈ 734 µM)
- concentration above which cells shrink and lose fibroblast-like structure [2]: above 125 µg/mL
- CRP (CRP): 3.02 ± 0.28 ^b ng/mL
- IL-1β (IL-1β): 77.98 ± 0.45 ^b pg/mL
- IL-6 (IL-6): 16.14 ± 0.16 ^b pg/mL
- TNF-α (TNF-α): 9.38 ± 0.20 ^b pg/mL
- MDA level (malondialdehyde (MDA)): notable improvements
- GSH concentration (glutathione (GSH)): notable improvements
- COX-2 level (rat cyclooxygenase 2): 4.10 ± 0.09 ng/mL
- dermal collagen content and distribution (Sirius Red) [3]: normal dermal collagen; also recorded: normal appearance and distribution

SMILES: NC1=NC2(c3ccccc3Cc3ccccc32)n2nc(C(=O)Nc3ccc(S(N)(=O)=O)cc3)nc2N1 [Compound 3]
- COX-2 inhibition % (mean activity) (COX-2): 99%
- viability at 31.25 µg/mL [1]: 99.8%
- IC50 [1]: 148 µg/mL (≈ 296 µM)
- concentration above which cells shrink and lose fibroblast-like structure [2]: above 62.5 µg/mL
- CRP (CRP): 2.20 ± 0.36 ^b ng/mL
- IL-1β (IL-1β): 60.38 ± 0.73 pg/mL
- IL-1β (IL-1β; listed as C3): 60.38 ± 0.73 ^b pg/mL
- IL-6 (IL-6): 11.39 ± 0.23 pg/mL
- IL-6 (IL-6; listed as C3): 11.39 ± 0.23 ^b pg/mL
- TNF-α (TNF-α): 7.16 ± 0.13 pg/mL
- TNF-α (TNF-α; listed as C3): 7.16 ± 0.13 ^b pg/mL
- MDA level (malondialdehyde (MDA); 200 mg/kg): close to normal
- MDA level (malondialdehyde (MDA); listed as compound 3, 200 mg/kg): 35.71 ± 0.51 nmol/g tissue
- GSH concentration (glutathione (GSH)): near-control values
- COX-2 level (rat cyclooxygenase 2): 2.22 ± 0.06 ng/mL
- dermal collagen content and distribution (Sirius Red) [3]: normal dermal collagenous fibers without any lesion; also recorded: complete restoration of normal dermal collagen
